According to patent US5266588A, “Compound produced by a strain of microtetraspora having antibacterial and neuritogenic activity” (Bristol-Myers Squibb Company, priority 1992, dated 1993):
≈ marks a conversion by molar mass, not a printed value. Entries after “also recorded” stand apart in the source; their conditions may differ.

Legend:
[1] = literature table; cited from earlier work
M. luteus PCI 1001 = assay: Antibacterial activity (serial 2-fold dilution MIC); type: cell-based; settings: Micrococcus luteus, PCI1001; Nutrient Agar, pH 7.0; 10^5 cells/ml; 32° C., 18 hr
Method: (§1) Assay for the Antibacterial Activity
(§2) The MIC's of BU-4514N against various test microorganisms were determined by the serial 2-fold dilution method after overnight incubation at 32° C. Nutrient agar medium (Difco) was used for Gram-positive and Gram-negative bacteria.
(§3) Medium: Nutrient Agar, pH 7.0
(§4) Inoculum size: 10^5 cells/ml
(§5) Incubations: 32° C., 18 hr

B. subtilis PCI 219 = assay: as above; type: cell-based; settings: Bacillus subtilis, PCI219; Nutrient Agar, pH 7.0; 10^5 cells/ml; 32° C., 18 hr
Method: as §1, §2, §3, §4, §5

S. typhi 901 = assay: as above; type: cell-based; settings: Salmonella enterica, 18 h, pH 7
Method: as §1, §2, §3, §4, §5

S. aureus Smith = assay: as above; type: cell-based; settings: Staphylococcus aureus; Nutrient Agar, pH 7.0; 10^5 cells/ml; 32° C., 18 hr
Method: as §1, §2, §3, §4, §5

E. coli Juhl A15119 = assay: as above; type: cell-based; settings: Escherichia coli, JUHLA15119; Nutrient Agar, pH 7.0; 10^5 cells/ml; 32° C., 18 hr
Method: as §1, §2, §3, §4, §5

P. aeruginosa A9843A = assay: as above; type: cell-based; settings: Pseudomonas aeruginosa, 18 h, pH 7
Method: as §1, §2, §3, §4, §5

E. coli NIHJ JC-2 = assay: as above; type: cell-based; settings: Escherichia coli, NIHJJC2; Nutrient Agar, pH 7.0; 10^5 cells/ml; 32° C., 18 hr
Method: as §1, §2, §3, §4, §5

K. pneumoniae PCI 602 = assay: as above; type: cell-based; settings: Klebsiella pneumoniae, PCI602; Nutrient Agar, pH 7.0; 10^5 cells/ml; 32° C., 18 hr
Method: as §1, §2, §3, §4, §5

E. coli K12 = assay: as above; type: cell-based; settings: Escherichia coli, Nutrient Agar, pH 7.0, 10^5 cells/ml, 32° C., 18 hr
Method: as §1, §2, §3, §4, §5

C. fleundii GN 7391 = assay: as above; type: cell-based; settings: Nutrient Agar, pH 7.0; 10^5 cells/ml; 32° C., 18 hr
Method: as §1, §2, §3, §4, §5

S. aureus A15036 (MRSA) = assay: as above; type: cell-based; settings: Staphylococcus aureus, Nutrient Agar, pH 7.0, 10^5 cells/ml, 32° C., 18 hr
Method: as §1, §2, §3, §4, §5

S. aureus FDA 209P JC-1 = assay: as above; type: cell-based; settings: Staphylococcus aureus, FDA209P; Nutrient Agar, pH 7.0; 10^5 cells/ml; 32° C., 18 hr
Method: as §1, §2, §3, §4, §5

PC 12R cells = assay: Assay for the neurite outgrowth (PC 12R cells pre-treated with 0.1 ng/ml NGF); type: cell-based, rat; settings: for No. of Neurites: neurites over 10 mm long on monitor
Method: Assay for the Neurite Outgrowth
The PC 12R cell density was adjusted to 1×10^5 cells/ml and 180 μl aliquots of the cell suspension were added to assay wells in a 96 well microtiter plate (Suimitomo). […] For the positive controls, 5.0 ng/ml NGF was added to a well. As negative controls, PC 12R cells without NGF were also prepared. […] Then a 20 μl aliquot of a test sample at varied concentrations was added to the test well containing PC 12R cells pre-treated with 0.1 ng/ml NGF. After 24 hours' incubation, the medium was removed and the cells were fixed with 0.3% glutaraldehyde (Tokyo Kasei) in Dulbecco's phosphate buffered saline and stained with Harris hematoxylin solution (Merck).
The stained cells were observed under a phase-contrast microscope connected with a video camera-CRT system. PC 12R cells were magnified 500 times on the CRT monitor. The lengths of spikes of the negative control cells were measured in order to establish the standard length of a spike of the PC 12R cells.

Solubility = type: physicochemical
Gram-positive bacteria = assay: In vitro antibacterial activity against Gram-positive bacteria; type: cell-based
Method: as §1, §2

[2] = tested on: retrograde neuronal cell death; septohippocampal connections; settings: cited from earlier work
[3] = tested on: adrenal medullary autografts; settings: intraperitoneal infusion, Parkinson's disease; cited from earlier work
[4] = tested on: PC12 pheochromocytoma cells; settings: cited from earlier work
[5] = tested on: cholinergic neuron atrophy and spatial memory impairment; settings: aged rats; cited from earlier work
[6] = 1.6 μg/ml, with 0.1 ng/ml NGF, 24 h
[7] = 3.1 μg/ml, with 0.1 ng/ml NGF, 24 h
[8] = 6.3 μg/ml, with 0.1 ng/ml NGF, 24 h
[9] = 12.5 μg/ml, sum of 5 fields/well and 3 wells, with 0.1 ng/ml NGF, 24 h
[10] = NGF 0.1 ng/ml (Running control)

In the case of C=C1/C(=C\C=C2/CCC[C@]3(C)[C@@H]([C@H](C)CCCC(C)(C)O)CC[C@@H]23)C[C@@H](O)C[C@@H]1O [1,25-Dihydroxy-vitamin D3], the “Note (reported NGF mimic activity)” value [1] is listed as “NGF inducer”.
CC1=CC2CC(C)CCC2C(C)(C(=O)C2=C(O)CNC2=O)C1CC(C)OC1CCC(N)C(C)O1 (stereo not shown) [BU-4514N] showed an MIC (M. luteus PCI 1001) of 1.6 µg/mL (≈ 3.37 µM), an MIC (B. subtilis PCI 219) of 0.8 µg/mL (≈ 1.69 µM) and an MIC (S. typhi 901) of over 100 µg/mL. For the same compound, the MIC (S. aureus Smith) was 3.1 µg/mL (≈ 6.53 µM), the MIC (E. coli Juhl A15119) was over 100 µg/mL and the MIC (P. aeruginosa A9843A) was over 100 µg/mL. For the same compound, the MIC (E. coli NIHJ JC-2) was over 100 µg/mL, the MIC (K. pneumoniae PCI 602) was over 100 µg/mL and the MIC (E. coli K12) was over 100 µg/mL. For the same compound, the MIC (C. fleundii GN 7391) was over 100 µg/mL, the MIC (S. aureus A15036 (MRSA)) was 3.1 µg/mL (≈ 6.53 µM) and the MIC (S. aureus FDA 209P JC-1) was 1.6 µg/mL (≈ 3.37 µM). The “No. of Neurites” value (PC 12R cells; [6]) was 2, the “No. of Cells” value (PC 12R cells; [6]) was 1611 and the “Ratio (No. of Neurites/No. of Cells)” value (PC 12R cells; [6]) was 0.12%. For the same compound, the “No. of Neurites” value (PC 12R cells; [7]) was 25, the “No. of Cells” value (PC 12R cells; [7]) was 1848 and the “Ratio (No. of Neurites/No. of Cells)” value (PC 12R cells; [7]) was 1.4%. For the same compound, the “No. of Neurites” value (PC 12R cells; [8]) was 149, the “No. of Cells” value (PC 12R cells; [8]) was 1570 and the “Ratio (No. of Neurites/No. of Cells)” value (PC 12R cells; [8]) was 9.5%. The “No. of Neurites” value (PC 12R cells; [9]) was 244, the “No. of Cells” value (PC 12R cells; [9]) was 1123 and the “Ratio (No. of Neurites/No. of Cells)” value (PC 12R cells; 12.5 μg/ml, with 0.1 ng/ml NGF, 24 h) was 21.7%. For the same compound, the “neurite outgrowth in number and length” value (PC 12R cells; 12.5 to 6.3 μg/ml, compared to the negative control cells) was “significantly induces the neurite outgrowth in number and length”, the solubility (Solubility; acidic water) was “soluble” and the solubility (Solubility; dimethylsulfoxide) was “soluble”. The solubility (Solubility; methanol) was “soluble”, the solubility (Solubility; ordinary organic solvents, such as chloroform, ethyl acetate and benzene) was “practically insoluble” and the solubility (Solubility; water) was “practically insoluble”. For the same compound, the “in vitro antibacterial activity” value (Gram-positive bacteria) was “good in vitro antibacterial activity”.
For CCCCCCCCCCCCCC(=O)O[C@@H]1[C@@H](C)[C@@]2(O)[C@@H](C=C(CO)C[C@]3(O)C(=O)C(C)=C[C@@H]23)[C@@H]2C(C)(C)[C@]12OC(C)=O [Phorbol 12-myristate 13-acetate], the “Note (reported NGF mimic activity)” value [1] is listed as “NGF inducer”.
In the case of CC1=C(/C=C/C(C)=C/C=C/C(C)=C/C(=O)O)C(C)(C)CCC1 [Retinoic acid], the “Note (reported NGF mimic activity)” value [1] is listed as “NGF inducer”.
For “NGF: protein known to be essential for the development and maintenance of certain sympathetic and sensory neurons in the peripheral nervous system”, the behavioral recovery ([2]; after damage to the septohippocampal connections) is given as “promote behavioral recovery”, the “retrograde neuronal cell death” value ([2]; intraventricular injections or infusions, young adult rats) is given as “prevent retrograde neuronal cell death” and the “No. of Cells” value (PC 12R cells; [10]) is given as 1565. The “Ratio (No. of Neurites/No. of Cells)” value (PC 12R cells; [10]) was 0.13%, the “No. of Neurites” value (PC 12R cells; [10]) was 2 and the “No. of Cells” value (PC 12R cells; NGF 5 ng/ml (Positive control)) was 1053. The “Ratio (No. of Neurites/No. of Cells)” value (PC 12R cells; NGF 5 ng/ml (Positive control)) was 6.8%, the “No. of Neurites” value (PC 12R cells; NGF 5 ng/ml (Positive control)) was 72 and the “sensitivity of PC 12R cells to NGF” value (PC 12R cells; as high as) was 1 ng/mL. The “support of adrenal medullary autografts” value [3] was “supports adrenal medullary autografts”, the “response of PC12 cells to NGF” value [4] was “differentiate into sympathetic neuron-like cells; also recorded: differentiating into sympathetic neuron-like cells” and the “cholinergic neuron atrophy and spatial memory impairment” value [5] was “ameliorate cholinergic neuron atrophy and spatial memory impairment”.
